Test results as given in patent publication US20230212225A1, “PEPTIDE COMPOSTIONS AND METHODS FOR TREATING TAUOPATHIES” (AXOLTIS PHARMA, priority 2019, published 2023).
Where a SMILES comes first, the peptide text is derived from it.

How the values were obtained:
[1] = tested on: hippocampal CA1 pyramidal neurons; experiment: Histological study, cresyl violet CA1 pyramidal neuron counting, D15; type: in vivo, mice
From the text: In order to measure neuronal loss in this model (as described by Maurice et al., 2013), a well-known pathological event occurring in patients with AD/Tauopathies, hippocampal neurons were counted in the brain of Sham, Aβ25-35 / vehicle and Aβ25-35 / NX210-treated mice.
To do so, fourteen days after ICV injection of Aβ25-35 or Scrambled peptide (D15) and daily compound administrations of NX210 (IP) or vehicle (IP), mice were anaesthetized by ketamine/xylazine and then transcardially perfused with phosphate buffer solution (PBS, 15 ml at 5 ml/min, pH 7.4) until fluid running clear, followed by a solution of 4% paraformaldehyde (PFA, 25 ml at 5 ml/min) until the fixation tremors disappeared. Brains were removed carefully and kept in 4% PFA at 4° C. for 24-48 h. Brains were then dehydrated through a series of graded ethanol baths to displace the water, and then infiltrated with wax. Finally, the infiltrated brains were embedded into wax blocks and sectioned at […]. Cresyl violet (CV) staining was performed on 9 brain sections per animal, each coronal section separated by 100 µm for CA1 pyramidal neuron counting.

[2] = tested on: Aβ1-42 (amyloid-beta 1-42); experiment: Brain biomarker assessment, hippocampus ELISA, D11; type: in vivo, mice
Method: (§1) In order to evaluate potential biological effects of NX210 or NX218 treatments on pathological biomarkers, mice from the Sc.Aβ / Vhc (n=6), Aβ25-35 / Vhc (n=6), Aβ25-35 / NX210 IP 2 mg/kg (n=5) and Aβ25-35 / NX218 IP 2 mg/kg (n=5) groups were sacrificed under anesthesia ten days after ICV injection of Aβ25-35 peptide (D11) and daily compound administrations (once a day).
(§2) For each mouse, the brain was quickly removed and dissected out on an ice-cold metal plate into 2 hemi-hippocampi, 2 hemi-frontal cortices and the rest of brain. Straight after each collection, brain samples were frozen on dry ice and stored at -80° C. After thawing, brain structures were dissociated in 50 mM Tris-150 mM NaCl buffer, pH 7.5, and sonicated for 20 sec. After centrifugation, supernatants containing proteins were used for ELISA assays according to the manufacturer’s instructions (see below). • For Aβ1-42 (amyloid-beta 1-42), use of the left hippocampus, ELISA kit from Cloud-Clone Corp., ref: CEA946Mu; batch: L190107385 • For pTau (phosphorylated Tau protein), use of the left hippocampus, ELISA kit from Fisher Scientific, ref: 10591255; batch: 187860001
(§3) For all assays, the absorbance was read at 450 nm and each sample concentration was calculated by using a specific standard curve. All samples were run in duplicate and the average of these duplicates was used for calculations.

[3] = tested on: pTau (phosphorylated Tau protein); experiment: Brain biomarker assessment, hippocampus ELISA, D11; type: in vivo, mice
Method: as §1, §2, §3

[4] = Preliminary in vitro conversion of NX210 in rat plasma; type: in vitro ADME
[5] = Pharmacokinetics in human healthy subjects; type: in vivo; conditions: single IV 10 mg/kg
Method: As in animals; PK study of NX210 in Human Healthy subjects was conducted following the measurement of its cyclic form NX218.

[6] = tested on: Aβ25-35-induced short-term memory deficits; experiment: Spontaneous alternation performance (Y-maze), treatment started 1 hour after Aβ25-35 injection, tested D08; type: in vivo, mice; conditions: for Y-maze % (Sc.Aβ / Vhc = 100) / Y-maze Mean, percentage of alternation: D08
[7] = tested on: Aβ25-35-induced long-term memory deficits; experiment: Step-through passive avoidance test (STPA), D09-D10; type: in vivo, mice
[8] = 2 mg/kg once a day for ten days
[9] = IP 2 mg/kg once a day, left hippocampus, D11
[10] = measured as NX218, maximum, N=3
[11] = measured as NX218, minimum, N=3
[12] = IP 2 mg/kg every other day (1/2d)
[13] = IP 3.75 mg/kg every other day (1/2d)
[14] = once a day, NX210 0.1 mg/kg, NX218 0.1 mg/kg, DPZ 0.25 mg/kg

N=C(N)NCCC[C@H](NC(=O)[C@H](CO)NC(=O)[C@H](CS)NC(=O)[C@H](CO)NC(=O)[C@H](CO)NC(=O)[C@H](Cc1c[nH]c2ccccc12)NC(=O)CNC(=O)[C@H](CO)NC(=O)[C@@H](N)Cc1c[nH]c2ccccc12)C(=O)N[C@@H](CO)C(=O)N[C@@H](CS)C(=O)NCC(=O)O [NX210, W-S-G-W-S-S-C-S-R-S-C-G] (H-WSGWSSCSRSCG-OH; N-terminus and C-terminus assumed)
effect on neuronal loss in the hippocampus, in words ([1]; 2 mg/kg): significantly prevents
Histology %, percentage of control (Sc.Aβ / Vhc) ([1]; IP 2 mg/kg once a day, D15): 93%
Histology Mean ([1]; IP 2 mg/kg once a day, D15): 311.84 number of neurons per mm of tissue
effect on brain Aβ1-42 vs Aβ25-35 / Vhc group, in words [2, 8]: significantly decreased
Aβ1-42 %, percentage of the control group (Sc.Aβ / Vhc) [2, 9]: 107%
Aβ1-42 Mean [2, 9]: 24.25
effect on brain pTau vs Aβ25-35 / Vhc group, in words [3, 8]: significantly decreased
pTau %, percentage of the control group (Sc.Aβ / Vhc) [3, 9]: 151%
pTau Mean [3, 9]: 90.21
conversion by oxidation in rat plasma, in words [4]: rapidly converted into NX218
Kel (clearance rate constant), AM ([5]; measured as NX218, arithmetic mean, N=3): 0.0348 I/min
Kel (clearance rate constant), GM ([5]; measured as NX218, geometric mean, N=3): 0.0347 I/min
AUClast, Max ([5]; measured as NX218, maximum): 7850 ng·min/mL
Cmax, Max ([5]; measured as NX218, maximum): 1040 ng/mL
Tmax, Max ([5]; measured as NX218, maximum): 12.00 min
AUC∞, Max [5, 10]: 7920 ng·min/mL
Kel (clearance rate constant), Max [5, 10]: 0.0372 I/min
t½, Max [5, 10]: 22.5 min
Kel (clearance rate constant), Median ([5]; measured as NX218, median, N=3): 0.0365 I/min
AUClast, Min ([5]; measured as NX218, minimum): 1470 ng·min/mL
Cmax, Min ([5]; measured as NX218, minimum): 185 ng/mL
Tmax ([5]; measured as NX218, minimum): 6.00 min
AUC∞, Min [5, 11]: 2800 ng·min/mL
Kel (clearance rate constant), Min [5, 11]: 0.0308 I/min
t½ [5, 11]: 18.6 min
effect on spatial short-term working memory deficits (Y-maze), in words ([6]; 1, 2 and 3.75 mg/kg IP, once a day or every other day): significantly rescued
Y-maze % (Sc.Aβ / Vhc = 100) ([6]; IP 0.1 mg/kg once a day): 60%
Y-maze Mean, percentage of alternation ([6]; IP 0.1 mg/kg once a day): 44.52%
Y-maze % (Sc.Aβ / Vhc = 100) ([6]; IP 1 mg/kg once a day): 79%
Y-maze Mean, percentage of alternation ([6]; IP 1 mg/kg once a day): 58.16%
Y-maze % (Sc.Aβ / Vhc = 100) [6, 12]: 100%
Y-maze Mean, percentage of alternation [6, 12]: 74.35%
Y-maze % (Sc.Aβ / Vhc = 100) ([6]; IP 2 mg/kg once a day): 98%
Y-maze Mean, percentage of alternation ([6]; IP 2 mg/kg once a day): 72.67%
Y-maze % (Sc.Aβ / Vhc = 100) [6, 13]: 98%
Y-maze Mean, percentage of alternation [6, 13]: 72.62%
Y-maze % (Sc.Aβ / Vhc = 100) ([6]; IP 3.75 mg/kg once a day): 96%
Y-maze Mean, percentage of alternation ([6]; IP 3.75 mg/kg once a day): 70.90%
restoration of short-term memory to Sham level (Y-maze), in words ([6]; NX210 at 2 and 3.75 mg/kg, NX218 at 1, 2 and 3.75 mg/kg): complete restoration
effect on Aβ25-35-induced short-term memory deficits (Y-maze) at subactive dose, in words [6, 14]: do not impede
EL % (Sc.Aβ / Vhc = 100) ([7]; IP 0.1 mg/kg once a day): 449%
EL Mean, escape latency, retention session ([7]; IP 0.1 mg/kg once a day): 89.42 s
STL % (Sc.Aβ / Vhc = 100) ([7]; IP 0.1 mg/kg once a day): 42%
STL Mean, step-through latency, retention session ([7]; IP 0.1 mg/kg once a day): 118.92 s
EL % (Sc.Aβ / Vhc = 100) ([7]; IP 1 mg/kg once a day): 267%
EL Mean, escape latency, retention session ([7]; IP 1 mg/kg once a day): 53.08 s
STL % (Sc.Aβ / Vhc = 100) ([7]; IP 1 mg/kg once a day): 63%
STL Mean, step-through latency, retention session ([7]; IP 1 mg/kg once a day): 177.92 s
EL % (Sc.Aβ / Vhc = 100) [7, 12]: 110%
EL Mean, escape latency, retention session [7, 12]: 22.00 s
STL % (Sc.Aβ / Vhc = 100) [7, 12]: 93%
STL Mean, step-through latency, retention session [7, 12]: 263.33 s
EL % (Sc.Aβ / Vhc = 100) ([7]; IP 2 mg/kg once a day): 156%
EL Mean, escape latency, retention session ([7]; IP 2 mg/kg once a day): 31.17 s
STL % (Sc.Aβ / Vhc = 100) ([7]; IP 2 mg/kg once a day): 88%
STL Mean, step-through latency, retention session ([7]; IP 2 mg/kg once a day): 248.33 s
EL % (Sc.Aβ / Vhc = 100) [7, 13]: 119%
EL Mean, escape latency, retention session [7, 13]: 23.75 s
STL % (Sc.Aβ / Vhc = 100) [7, 13]: 94%
STL Mean, step-through latency, retention session [7, 13]: 264.75 s
EL % (Sc.Aβ / Vhc = 100) ([7]; IP 3.75 mg/kg once a day): 139%
EL Mean, escape latency, retention session ([7]; IP 3.75 mg/kg once a day): 27.67 s
STL % (Sc.Aβ / Vhc = 100) ([7]; IP 3.75 mg/kg once a day): 90%
STL Mean, step-through latency, retention session ([7]; IP 3.75 mg/kg once a day): 255.50 s
effect on contextual long-term memory deficits (STL and EL), in words ([7]; NX210 2 and 3.75 mg/kg, NX218 1, 2 and 3.75 mg/kg, once a day or every other day): fully rescued
effect on contextual long-term memory deficits (STL and EL) at subactive dose, in words [7, 14]: do not impede
